Measurements from PubChem BioAssay (NCI).
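In this assay, cells in 96-well plates receive the compound at five concentrations for 48 hours. Endpoints are linearly interpolated between the surrounding concentrations. At the GI50, growth is halved. TGI: total growth inhibition.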

Legend:
Assay in all cases: DTP human tumour cell line panel, 48 h
786-0 renal = system: 786-0 renal
A498 renal = system: A498 renal
A549 NSCLC = system: A549 NSCLC
ACHN renal = system: ACHN renal
CAKI-1 renal = system: CAKI-1 renal
CCRF-CEM leukemia = system: CCRF-CEM leukemia
COLO 205 colon = system: COLO 205 colon
DU-145 prostate = system: DU-145 prostate
EKVX NSCLC = system: EKVX NSCLC
HCC-2998 colon = system: HCC-2998 colon
HCT-116 colon = system: HCT-116 colon
HCT-15 colon = system: HCT-15 colon
HL-60(TB) leukemia = system: HL-60(TB) leukemia
HOP-62 NSCLC = system: HOP-62 NSCLC
HS 578T breast = system: HS 578T breast
HT29 colon = system: HT29 colon
IGROV1 ovarian = system: IGROV1 ovarian
K-562 leukemia = system: K-562 leukemia
KM12 colon = system: KM12 colon
LOX IMVI melanoma = system: LOX IMVI melanoma
M14 melanoma = system: M14 melanoma
MALME-3M melanoma = system: MALME-3M melanoma
MCF7 breast = system: MCF7 breast
MDA-MB-231 breast = system: MDA-MB-231 breast
MDA-MB-435 = system: MDA-MB-435
MOLT-4 leukemia = system: MOLT-4 leukemia
NCI-H226 lung = system: NCI-H226 lung
NCI-H23 lung = system: NCI-H23 lung
NCI-H460 lung = system: NCI-H460 lung
NCI-H522 lung = system: NCI-H522 lung
NCI/ADR-RES ovarian = system: NCI/ADR-RES ovarian
OVCAR-3 ovarian = system: OVCAR-3 ovarian
OVCAR-4 ovarian = system: OVCAR-4 ovarian
OVCAR-5 ovarian = system: OVCAR-5 ovarian
OVCAR-8 ovarian = system: OVCAR-8 ovarian
PC-3 prostate = system: PC-3 prostate
RPMI-8226 leukemia = system: RPMI-8226 leukemia
RXF 393 renal = system: RXF 393 renal
SF-268 CNS = system: SF-268 CNS
SF-295 CNS = system: SF-295 CNS
SF-539 CNS = system: SF-539 CNS
SK-MEL-2 melanoma = system: SK-MEL-2 melanoma
SK-MEL-28 melanoma = system: SK-MEL-28 melanoma
SK-MEL-5 melanoma = system: SK-MEL-5 melanoma
SK-OV-3 ovarian = system: SK-OV-3 ovarian
SN12C renal = system: SN12C renal
SNB-19 CNS = system: SNB-19 CNS
SNB-75 CNS = system: SNB-75 CNS
SR leukemia = system: SR leukemia
SW-620 colon = system: SW-620 colon
T-47D breast = system: T-47D breast
TK-10 renal = system: TK-10 renal
U251 CNS = system: U251 CNS
UACC-257 melanoma = system: UACC-257 melanoma
UACC-62 melanoma = system: UACC-62 melanoma
UO-31 renal = system: UO-31 renal

Compound: COc1ccc2c(c1)/C(=N/OC(C)=O)c1c-2c(Nc2cccc(/C(C)=N/OC(C)=O)c2)nc2ccccc12
- GI50 (786-0 renal): 37 µM
- TGI (786-0 renal): > 100 µM
- GI50 (A498 renal): 57.3 µM
- TGI (A498 renal): > 100 µM
- GI50 (A549 NSCLC): 31.1 µM
- TGI (A549 NSCLC): > 100 µM
- GI50 (ACHN renal): 21.4 µM
- TGI (ACHN renal): 61 µM
- GI50 (CAKI-1 renal): 27.3 µM
- TGI (CAKI-1 renal): 55.9 µM
- GI50 (CCRF-CEM leukemia): 84.6 µM
- TGI (CCRF-CEM leukemia): > 100 µM
- GI50 (COLO 205 colon): > 100 µM
- TGI (COLO 205 colon): > 100 µM
- GI50 (DU-145 prostate): 29.5 µM
- TGI (DU-145 prostate): 85.6 µM
- GI50 (EKVX NSCLC): 21.9 µM
- TGI (EKVX NSCLC): 53.1 µM
- GI50 (HCC-2998 colon): 70.8 µM
- TGI (HCC-2998 colon): > 100 µM
- GI50 (HCT-116 colon): 41.5 µM
- TGI (HCT-116 colon): > 100 µM
- GI50 (HCT-15 colon): > 100 µM
- TGI (HCT-15 colon): > 100 µM
- GI50 (HL-60(TB) leukemia): > 100 µM
- TGI (HL-60(TB) leukemia): > 100 µM
- GI50 (HOP-62 NSCLC): 37.6 µM
- TGI (HOP-62 NSCLC): > 100 µM
- GI50 (HS 578T breast): 40.3 µM
- TGI (HS 578T breast): > 100 µM
- GI50 (HT29 colon): > 100 µM
- TGI (HT29 colon): > 100 µM
- GI50 (IGROV1 ovarian): 47.5 µM
- TGI (IGROV1 ovarian): > 100 µM
- GI50 (K-562 leukemia): 37.9 µM
- TGI (K-562 leukemia): > 100 µM
- GI50 (KM12 colon): 48.9 µM
- TGI (KM12 colon): > 100 µM
- GI50 (LOX IMVI melanoma): 67.7 µM
- TGI (LOX IMVI melanoma): > 100 µM
- GI50 (M14 melanoma): > 100 µM
- TGI (M14 melanoma): > 100 µM
- GI50 (MALME-3M melanoma): 96.4 µM
- TGI (MALME-3M melanoma): > 100 µM
- GI50 (MCF7 breast): 85.1 µM
- TGI (MCF7 breast): > 100 µM
- GI50 (MDA-MB-231 breast): > 100 µM
- TGI (MDA-MB-231 breast): > 100 µM
- GI50 (MDA-MB-435): > 100 µM
- TGI (MDA-MB-435): > 100 µM
- GI50 (MOLT-4 leukemia): 25.8 µM
- TGI (MOLT-4 leukemia): 62.6 µM
- GI50 (NCI-H226 lung): 86.3 µM
- TGI (NCI-H226 lung): > 100 µM
- GI50 (NCI-H23 lung): 35 µM
- TGI (NCI-H23 lung): > 100 µM
- GI50 (NCI-H460 lung): 97.4 µM
- TGI (NCI-H460 lung): > 100 µM
- GI50 (NCI-H522 lung): 35 µM
- TGI (NCI-H522 lung): > 100 µM
- GI50 (NCI/ADR-RES ovarian): 55.3 µM
- TGI (NCI/ADR-RES ovarian): > 100 µM
- GI50 (OVCAR-3 ovarian): 56.5 µM
- TGI (OVCAR-3 ovarian): > 100 µM
- GI50 (OVCAR-4 ovarian): 86.6 µM
- TGI (OVCAR-4 ovarian): > 100 µM
- GI50 (OVCAR-5 ovarian): > 100 µM
- TGI (OVCAR-5 ovarian): > 100 µM
- GI50 (OVCAR-8 ovarian): 17 µM
- TGI (OVCAR-8 ovarian): 58.4 µM
- GI50 (PC-3 prostate): 21.1 µM
- TGI (PC-3 prostate): 41.5 µM
- GI50 (RPMI-8226 leukemia): 64.6 µM
- TGI (RPMI-8226 leukemia): > 100 µM
- GI50 (RXF 393 renal): 13.4 µM
- TGI (RXF 393 renal): 40.7 µM
- GI50 (SF-268 CNS): 39 µM
- TGI (SF-268 CNS): > 100 µM
- GI50 (SF-295 CNS): 29.9 µM
- TGI (SF-295 CNS): > 100 µM
- GI50 (SF-539 CNS): 63.9 µM
- TGI (SF-539 CNS): > 100 µM
- GI50 (SK-MEL-2 melanoma): 59.1 µM
- TGI (SK-MEL-2 melanoma): > 100 µM
- GI50 (SK-MEL-28 melanoma): > 100 µM
- TGI (SK-MEL-28 melanoma): > 100 µM
- GI50 (SK-MEL-5 melanoma): 60.2 µM
- TGI (SK-MEL-5 melanoma): > 100 µM
- GI50 (SK-OV-3 ovarian): > 100 µM
- TGI (SK-OV-3 ovarian): > 100 µM
- GI50 (SN12C renal): 48.8 µM
- TGI (SN12C renal): > 100 µM
- GI50 (SNB-19 CNS): 55.4 µM
- TGI (SNB-19 CNS): > 100 µM
- GI50 (SNB-75 CNS): 30.9 µM
- TGI (SNB-75 CNS): 64.5 µM
- GI50 (SR leukemia): 94.4 µM
- TGI (SR leukemia): > 100 µM
- GI50 (SW-620 colon): 47.5 µM
- TGI (SW-620 colon): > 100 µM
- GI50 (T-47D breast): 37.3 µM
- TGI (T-47D breast): > 100 µM
- GI50 (TK-10 renal): 77.6 µM
- TGI (TK-10 renal): > 100 µM
- GI50 (U251 CNS): 32.4 µM
- TGI (U251 CNS): > 100 µM
- GI50 (UACC-257 melanoma): 36.2 µM
- TGI (UACC-257 melanoma): > 100 µM
- GI50 (UACC-62 melanoma): > 100 µM
- TGI (UACC-62 melanoma): > 100 µM
- GI50 (UO-31 renal): > 100 µM
- TGI (UO-31 renal): > 100 µM
